Assay results reported in patent US11919933B2, “Use of MYOG gene as target in preparation of drug for treating cardiomyocyte apoptosis-associated cardiovascular disease” (GUANGDONG BEATING ORIGIN REGENERATIVE MEDICINE CO., LTD., priority 2020, dated 2024).
Counter-ions that a name gives are not always drawn.

Legend:
Type in all cases: cell-based, human
hiPSC-CMs [1] = assay: Annexin V apoptosis assay (flow cytometry) of angiotensin II-treated hiPSC-CMs; conditions: angiotensin II 100 μM and 1 mM, 10 d
Method: (§1) 2.1 Induction of hiPSC-CM apoptosis with angiotensin II: Purified hiPSC-CMs were cultivated in a cardiomyocyte medium (MedChemExpress, HY-13948) with angiotensin II at different concentrations (1 nM, 10 nM, 100 nM, 1 μM, 10 μM, 100 μM, and 1 mM), and the angiotensin II-containing medium was changed every 2 days.
2.2.2 The apoptosis of cardiomyocytes treated with angiotensin II (100 μM and 1 mM) and untreated with angiotensin II on day 10 was detected with the apoptosis assay kit Annexin V, Alexa Fluor™488 conjugate (Invitrogen, V13201). Cardiomyocytes were labeled with the apoptosis marker Annexin V and then assayed with a FACSAria™ II flow cytometer (BD).

hiPSC-CMs [2] = assay: TUNEL apoptosis test of angiotensin II-treated hiPSC-CMs; conditions: angiotensin II 100 μM and 1 mM, 10 d
Method: as §1
2.2.3 TUNEL test: The TdT in situ apoptosis detection kit (R&D Systems, 4812-30-K) was used to detect the apoptosis of cardiomyocytes treated with angiotensin II (1 nM, 1 μM, 100 μM, and 1 mM) and untreated with angiotensin II on day 10. Cardiomyocytes were digested, then added on a glass slide, and stained according to the kit instructions, and nuclei were labeled with DAPI.

hiPSC-MYOG-CMs = assay: TUNEL apoptosis test of hiPSC-MYOG-CMs (Ang II / Dox groups); conditions: angiotensin II 1 mM, 6 d
Method: 5.1 Induction of hiPSC-MYOG-CM apoptosis with angiotensin II: Purified hiPSC-MYOG-CMs were divided into 4 groups (Ang II(+)&Dox(+), Ang II(+)&Dox(−), Ang II(−)&Dox(+), and Ang II(−)&Dox(−)) and then treated for 6 d with a Dox having a concentration of 2 μg/mL and an angiotensin II having a concentration of 1 mM.
5.3 Apoptosis assay: TUNEL test: The TdT in situ apoptosis detection kit (R&D Systems, 4812-30-K) was used to detect the apoptosis of cardiomyocytes in the 4 groups (Ang II(+)&Dox(+), Ang II(+)&Dox(−), Ang II(−)&Dox(+), and Ang II(−)&Dox(−)). Cardiomyocytes were digested, then added on a glass slide, and stained according to the kit instructions. Nuclei were labeled with DAPI.

hiPSC-CMs [3] = assay: PrestoBlue cell viability assay of angiotensin II-treated hiPSC-CMs; conditions: angiotensin II 100 μM and 1 mM, long-term treatment (6 d and 10 d)
Method: as §1
2.2.1 A cardiomyocyte viability was detected with the PrestoBlue cell viability assay reagent (Invitrogen, A13261) at 24 h, 48 h, 6 d, and 10 d, and results are shown in FIG. 3.

[4] = tested on: MYOG expression in hiPSC-MYOG cells; assay: qPCR detection of MYOG mRNA expression levels after Dox induction; conditions: Dox 2 μg/mL
Method: 2.1 Induction: The expression of MYOG was induced by adding Dox (Sigma, D9891) at a final concentration of 2 μg/mL to STEMUP, and DMSO was used as a control. In the control group, only DMSO (denoted as C1) was added to STEMUP. In the experimental group, both DOX and DMSO were added to STEMUP, where DOX was first added to DMSO, and then a resulting mixture (denoted as C2) was added to STEMUP. A final concentration of DOX in STEMUP was 2 μg/mL, and the C1 and C2 were added at a same amount. 2.2 Total RNA extraction: The UN1Q-10 column Trizol total RNA extraction kit (Sangon Biotech, B511321-0100) was used to extract total RNA of the cells (a sample was treated with deoxyribonuclease I (DNase I, Sangon Biotech, B618252) for 30 min in advance). 2.3 Reverse transcription: RNA was reverse-transcribed with the reverse transcription kit iScript Reverse Transcription Supermix (Bio-Rad, 1708841). 2.4 qPCR detection of MYOG mRNA expression levels: According to the instructions of SsoAdvanced™ Universal SYBR® Green Supermix (Bio-Rad, 1725271), the PikoReal Real-Time PCR system (Thermo Fisher) was used to design primers with […] as an internal reference, and then MYOG expression levels in hiPSC and hiPSC-MYOG (Dox-induced group and DMSO control group) were detected. Sequences of the primers were as follows: […]

Molecule | proportion of apoptotic cells (Annexin V) (hiPSC-CMs [1]) | proportion of apoptotic cells (TUNEL) (hiPSC-CMs [2]) | apoptotic cell proportion relative to the control group (hiPSC-MYOG-CMs) | cell viability (hiPSC-CMs [3]) | expression level of MYOG in the Dox-induced group versus the DMSO control group [4]
angiotensin II (DRVYIHPF; Angiotensin-2; UniProt P01019 25-32, looked up) [common inducer for establishing cardiomyocyte apoptosis models] | increased significantly | increased significantly | 2.01 times | decreased significantly | –
C[C@H]1c2cccc(O)c2C(=O)C2=C(O)[C@]3(O)C(=O)C(C(N)=O)=C(O)[C@@H](N(C)C)[C@@H]3[C@@H](O)[C@@H]21 [Dox, doxycycline hydrochloride] | – | – | – | – | more than 100 times
